A short description of data set [1]: pH of the suspension containing MB. Conditions: Example 1: H2O2 at 15 vol. %, without or with TiO2. It counts as physicochemical. As to the method:
The aim was to measure if methylene blue could be degradated by H2O2 (PERDROGEN® 30% H2O2 (w/w), Sigma Aldrich AS, Oslo, Norway) at 15% only, without TiO2 or UV irradiation. Then, an increasing concentration of TiO2 (Aeroxide P25, Evonik AG, Essen, Germany) was added to the solution until a maximum concentration of 8 g/L. The measurements were taken every 3 minutes for one hour. The pH of the suspension containing MB was also registered. The suspension was stirred prior to each measurement to prevent the deposition of the TiO2 particles.
The aim was to measure if methylene blue could be degradated by TiO2 nanoparticles only (Aeroxide P25, Evonik AG, Essen, Germany), without H2O2 or UV irradiation. Then, an increasing concentration of H2O2 (PERDROGEN® 30% H2O2 (w/w), Sigma Aldrich AS, Oslo, Norway) was added to the suspension until a maximum concentration of 15 vol. %. The procedure of the experiment was the same as explained in example 1.

Data set [2] is described as follows: Methylene blue degradation measured by UV-vis spectrophotometry. The conditions noted are these: Example 1: H2O2 at 15 vol. %, TiO2 at various concentrations, no UV irradiation, measured every 3 minutes for one hour. From the text: Methylene blue (MB) is a heterocyclic aromatic chemical compound with molecular formula: C16H18N3SCl (AldrichSigmaAldrich, Oslo, Norway). It has many uses in a range of different fields, such as biology and chemistry. […] A degradadation of MB therefore can be used as a model for the in vivo degradation of organic material, such as bacteria, or dead, damaged, and/or infected tissue. At room temperature it appears as a solid, odourless, dark green powder that yields a blue solution when dissolved in water. When degradated in solution, methylene blue becomes colourless. When methylene blue is analysed by UV-vis spectrophotometry (Lambda 25, Perkin Elmer, USA), it absorbs light at […]. This machine was used to quantify the degradation of MB.
The aim was to measure if methylene blue could be degradated by H2O2 (PERDROGEN® 30% H2O2 (w/w), Sigma Aldrich AS, Oslo, Norway) at 15% only, without TiO2 or UV irradiation. Then, an increasing concentration of TiO2 (Aeroxide P25, Evonik AG, Essen, Germany) was added to the solution until a maximum concentration of 8 g/L. The measurements were taken every 3 minutes for one hour. The pH of the suspension containing MB was also registered. The suspension was stirred prior to each measurement to prevent the deposition of the TiO2 particles. […]

For `OO` [H2O2 at 15 vol. %, H2O2], in data set [1], the “pH of the suspension containing MB” value stood at 3.7. In addition, the Methylene blue degradation result in data set [2] is “Almost no degradation”.

(Values after patent US20120308623A1, “COMPOSITION COMPRISING NANOPARTICLES OF TI02” (priority 2009, published 2012).)
